“Also recorded” adds a separate entry of the source. Where two headings read alike, the source gives them in different places.
Legend:
P. yoelii LS parasites [1] = test: Quantification of LS parasites in P. yoelii-infected Hepa 1-6 cells by manual counting; format: cell-based, Plasmodium yoelii; conditions: Serdemetan 10 μM for 24 hours both before and after infection
[2] = reportedly; cited from earlier work
P. yoelii LS parasites [3] = test: Quantification of LS parasites in P. yoelii-infected Hepa 1-6 cells by manual counting; format: cell-based, Plasmodium yoelii; conditions: for effect of adding pan-caspase inhibitor qVD-OPh on the LS reduction by the drug: qVD-OPh 20 μM; for LS burden: 100 nM, 24 or 48 hours
Protocol: Quantification of LS parasites after ABT-737, ABT-199, Obatoclax, Nutlin-3, or Serdemetan treatment by manual counting. In all, 1.5×10^5 Hepa 1-6 cells were seeded in DMEM complete medium in each well of an eight-well Permanox slide. Cells were infected with 5×10^4 P. yoelii sporozoites. Slides were centrifuged for 3 min at 515× g in a hanging-bucket centrifuge to aid in sporozoite invasion. After 90 min, we removed media that contained sporozoites that had not infected the cells and added fresh media only, or media containing ABT-737 (100 nM), ABT-199 (100 nM), Obatoclax (100 nM), Nutlin-3 (20 μM), or Serdemetan (10 μM) with or without qVD-OPh (20 μM). We allowed LSs to develop for 24 hours or 48 hours, at which time cells were fixed with 4% paraformaldehyde, blocked, and permeabilized for 1 hour in PBS with the addition of 0.1% Triton X-100 and 2% BSA. Staining steps were performed in PBS supplemented with 2% BSA. We stained cells using anti-sera to Plasmodium HSP70 and UIS4 proteins at 4° C. overnight and then washed several times, and antibodies were visualized with the use of AlexaFluor-488 goat anti-mouse and AlexaFluor-594 goat anti-rabbit secondary antibody (Life Technologies, Grand Island, N.Y., USA). We used DAPI stain to visualize both hepatocyte and parasite nuclei. Sporozoites that had not invaded and/or developed in hepatoma cells were distinguished by UIS4 circumferential staining and morphology. All LS parasites in each well were counted, and each assay was performed in biological triplicate.

p53 = test: Quantification of p53 by Western blotting in Hepa 1-6 cells; format: cell-based; conditions: immunoblot, 24 or 48 hours
Protocol: Quantification of p53 by Western Blotting. We plated 10^6 Hepa 1-6 cells per well of a 6-well plate in DMEM complete media and treated with complete media only, 20 μM Nutlin-3, 100 nM ABT-737, 100 nM Obatoclax, or 10 μM Serdemetan for 24 or 48 hours. Cells were lysed in SDS lysis buffer (2% SDS, 50 mM Tris-HCl, 5% glycerol, 5 mM EDTA, 1 mM NaF, 10 mM β-glycerophosphate, 1 mM PMSF, 1 mM activated Na3VO4, 1 mM DTT, 1% phosphatase inhibitor cocktail 2; Sigma-Aldrich), 1% PhosSTOP Phosphatase Inhibitor Cocktail Tablet (Roche), filtered overnight at 3000 rpm through AcroPrep Advance Filter Plates (Pall Corporation) and stored at −80° C. Western blots were performed according to manufacturer instruction with the iBlot Dry Transfer System (Life Technologies, Carlsbad, Calif., USA) using an antibody to p53 (Clone 1C12; Cell Signaling Technology) and then normalized to signal from an anti-β-actin (Cell Signaling Technology) Western blot. Signals from immunoblots were detected using either an Alexa 680-conjugated anti-rabbit antibody or an Alexa 800-conjugated anti-mouse antibody (LI-COR Biosciences). Membranes were visualized using an Odyssey infrared imaging system (LI-COR Biosciences).

[4] = cited from earlier work
P. yoelii [5] = test: Specific action of Nutlin-3 in vivo, patency in wild-type and liver-specific p53 knockout mice; conditions: 1000 spz
Description: Specific Action of Nutlin-3 in vivo experiment. Liver-specific p53 knock-out mice were generated by breeding p53 floxed mice (B6.129P2-Trp53tm1Brn/J) and cre-albumin (B6.Cg-Tg(Alb-cre)21Mgn/J). P53 floxed/unfloxed alleles were identified by size of band on a 2% agarose gel (270 bp for WT, 390 bp for floxed) using the primers: forward—[…] (SEQ ID NO:1) and reverse—[…] (SEQ ID NO:2). Cre was identified by the presence/absence of the mutant allele (heterozygotes vs. homozygotes were not distinguished) using the primers: forward—[…] (SEQ ID NO:3) and reverse—[…] (SEQ ID NO:4). All DNA was extracted using Qiagen DNEasy Blood & Tissue Kit (Qiagen Inc., Valencia, Calif., USA) per manufacturer's protocol. PCR was performed using BioMix Red (2×) from BioLine (BioLine USA Inc., Taunton, Mass., USA).
Both wild-type p53 (cre-alb) and liver-specific p53 knockout mice (cre-alb/flox-p53) were treated with either vehicle or Nutlin-3 as described in the previous in vivo method. On the second day of treatment, all mice were infected i.v. with 1000 P. yoelii sporozoites. Patency was checked by Giemsa-stained thin blood smear daily until all mice became patent. Animal handling was conducted according to the Institutional Animal Care and Use Committee-approved protocols.

P. yoelii [6] = test: Nutlin-3 and Obatoclax in vivo, blood stage patency in BALB/cJ mice; conditions: Nutlin-3 200 mg/kg twice daily, Obatoclax 5 mg/kg once daily; 1000 or 100 spz i.v.
Protocol: Nutlin-3 and Obatoclax in vivo experiments. 60 BALB/cJ mice (Jackson Laboratory, Bar Harbor, Me., USA) were treated with either vehicle control 5 mg/kg of Obatoclax, 200 mg/kg Nutlin-3, or both Obatoclax and Nutlin-3 by oral gavage once (Obatoclax) or twice (Nutlin-3) daily for 3 days. On the second day of treatment, mice were injected with 1000 or 100 P. yoelii sporozoites. Patency was checked by Giemsa-stained thin blood smear daily for the first 7 days, then every other day until day 14. Animal handling was conducted according to the Institutional Animal Care and Use Committee-approved protocols.

Hepa 1-6 cells [7] = test: Cell permeabilization (cell death) assay, flow cytometry; format: cell-based; conditions: 48 hour treatment
Protocol: Cell Permeabilization Assay. Hepa 1-6 cells were seeded in a 24-well tissue culture-treated plate at 3×10^5 cells per well overnight. […] Briefly, cells were stained live with reconstituted dye (1:500) in 500 μL PBS on ice for 30 minutes, mixing periodically, washed twice with 500 μL PBS, and then fixed with 100 μL BD Cytofix/Cytoperm™ fixation/permeabilization (BD Biosciences, San Jose, Calif., USA) solution for 15 minutes on ice. Cells were stored in 200 μL 5 mM EDTA in PBS at 4° C. until analyzed using a BD™ LSR II flow cytometer (BD Biosciences) at 605 nm on the violet 405 nm laser, and resulting FCS files were analyzed with FlowJo 7.6.1 (Tree Star, Ashland, Oreg., USA).

Hepa 1-6 cells [8] = test: Apoptosis in Hepa 1-6 cells (data not shown); format: cell-based

| SMILES | effect of adding pan-caspase inhibitor qVD-OPh on the LS reduction by the drug (P. yoelii LS parasites [3]) | p53 protein levels (p53) | uninfected hepatoma cell death (Hepa 1-6 cells [7]) | LS burden (P. yoelii LS parasites [3]) | other results |
| --- | --- | --- | --- | --- | --- |
| c1ccc2c(CCNc3ccc(Nc4ccncc4)cc3)c[nH]c2c1 [Serdemetan] | did not reverse | substantially boosted |  |  | LS parasites (P. yoelii LS parasites [1]): completely eliminated; toxicity compared with Nutlin-3 [2]: lower toxicity; P. yoelii LS burden versus Serdemetan concentration (P. yoelii LS parasites [3]; 48 hours): dose-dependent manner; LS-infected hepatocytes eliminated (P. yoelii LS parasites [3]; in vitro, half the dose of Nutlin-3): more than 90%; tolerability in humans ([4]; clinical trials): well-tolerated |
| COc1ccc(C2=N[C@@H](c3ccc(Cl)cc3)[C@@H](c3ccc(Cl)cc3)N2C(=O)N2CCNC(=O)C2)c(OC(C)C)c1 [Nutlin-3] | completely unaltered | substantially boosted | no increase |  | onset of patency (P. yoelii [5]; cre-Alb (wild-type p53) mice, 200 mg/kg twice daily oral gavage): highly effective; onset of patency (P. yoelii [5]; liver-specific p53 knockout mice (p53-flox/cre-Alb), 200 mg/kg twice daily): did not delay the onset of patency; onset of patency (P. yoelii [6]): delay in the onset of patency; liver stage parasites eliminated (P. yoelii LS parasites [3]; Nutlin-3 20 μM, 48 hours): 97% |
| CC1(C)CCC(CN2CCN(c3ccc(C(=O)NS(=O)(=O)c4ccc(NCC5CCOCC5)c([N+](=O)[O-])c4)c(Oc4cnc5[nH]ccc5c4)c3)CC2)=C(c2ccc(Cl)cc2)C1 [ABT-199] |  |  |  | minimal decrease; also recorded: did not reduce LS burden |  |
| CC(C)[C@H](NC(=O)c1ccc2ccccc2n1)C(=O)N[C@@H](CC(=O)O)C(=O)COc1c(F)cccc1F [qVD-OPh, N-(2-Quinolyl)-L-valyl-L-aspartyl-(2,6-difluorophenoxy) methylketone] |  |  |  |  | apoptosis in Hepa 1-6 cells (Hepa 1-6 cells [8]): reverses nearly all apoptosis |
| CN(C)CC[C@H](CSc1ccccc1)Nc1ccc(S(=O)(=O)NC(=O)c2ccc(N3CCN(Cc4ccccc4-c4ccc(Cl)cc4)CC3)cc2)cc1[N+](=O)[O-] [ABT-737] | almost completely reversed | do not increase p53 levels | no increase | efficiently eliminates parasites |  |
| COC1=CC(c2cc3ccccc3[nH]2)=N/C1=C\c1[nH]c(C)cc1C [Obatoclax] |  |  | no increase |  | tolerability in humans ([4]; human, in vivo): well-tolerated |
